# Reference: patent publication US4943595A, “Perfluorochemicals and process for preparing the same” (The Green Cross Corporation, priority 1984, dated 1990)
# Columns and labels:
# [1] = Vapor pressure of the perfluorochemical
# [2] = comparison between perfluorochemicals; cited from earlier work
Structure (SMILES),Vapor pressure ([1]; 38° C.),other results
"FC(F)(F)C(F)(F)C(F)(OC(F)(C(F)(F)F)C(F)(F)F)C(F)(C(F)(F)F)C(F)(F)F (stereo not shown) [Ex. 2, Perfluroo-3-isopropoxy-2-methylpentane]",–,Vapor pressure ([1]; 37.5° C.): 35-36 mmHg
"FC(F)(F)C(F)(F)C(F)(F)C(F)(F)OC(F)(C(F)(F)C(F)(F)F)C(F)(C(F)(F)F)C(F)(F)F (stereo not shown) [Ex. 3, Perfluoro-3-n-butoxy-methylpentane]",–,Vapor pressure ([1]; 37.5° C.): 11-13 mmHg
"FC(F)(F)C(F)(F)C(F)(OC(F)(F)C(F)(C(F)(F)F)C(F)(F)F)C(F)(C(F)(F)F)C(F)(F)F (stereo not shown) [Ex. 4, Perfluoro-3-isobutoxy-2-methyl pentane]",–,Vapor pressure ([1]; 37.5° C.): 14-15 mmHg
"FC(F)(F)C(F)(F)C(F)(OC(F)(C(F)(F)C(F)(F)F)C(F)(C(F)(F)F)C(F)(F)F)C(F)(F)F (stereo not shown) [Ex. 5, Perfluoro-3-sec-butoxy-2-methylpentane]",–,Vapor pressure ([1]; 37.5° C.): 13-14 mmHg
"FC(F)(F)C(F)(F)C(F)(OC(F)(F)C(F)(F)C(F)(C(F)(F)F)C(F)(F)F)C(F)(C(F)(F)F)C(F)(F)F (stereo not shown) [Ex. 6, Perfluoro-3-isopentoxy-2-methylpentane]",–,Vapor pressure ([1]; 37.5° C.): 8-9 mmHg
"FC(F)(F)C(F)(F)OC(F)(C(F)(C(F)(F)F)C(F)(F)F)C(F)(C(F)(F)F)C(F)(F)F [Ex. 8, Perfluoro-3-ethoxy-2,4-dimethylpentane]",30-31 mmHg,–
"FC(F)(F)C(F)(F)C(F)(F)C(F)(F)OC(F)(C(F)(C(F)(F)F)C(F)(F)F)C(F)(C(F)(F)F)C(F)(F)F [Ex. 10, Perfluoro-3-n-butoxy-2,4-dimethylpentane]",8-9 mmHg,–
"FC(F)(F)C(F)(C(F)(F)F)C(F)(F)OC(F)(C(F)(C(F)(F)F)C(F)(F)F)C(F)(C(F)(F)F)C(F)(F)F [Ex. 11, Perfluoro-3-isobutoxy-2,4-dimethylpentane]",8-9 mmHg,–
"FC(F)(F)C(F)(F)C(F)(F)C(OC(F)(C(F)(F)F)C(F)(F)F)(C(F)(F)F)C(F)(F)F [Ex. 13, Perfluoro-2-isopropoxy-2-methylpentane]",29-30 mmHg,–
"FC(F)(F)C(F)(F)C(F)(F)C(F)(F)OC(C(F)(F)F)(C(F)(F)F)C(F)(F)C(F)(F)C(F)(F)F [Ex. 14, Perfluoro-2-n-butoxy-2-methylpentane]",13-14 mmHg,–
"FC(F)(F)C(F)(F)C(F)(F)C(OC(F)(F)C(F)(C(F)(F)F)C(F)(F)F)(C(F)(F)F)C(F)(F)F [Ex. 15, Perfluoro-2-isobutoxy-2-methylpentane]",15-16 mmHg,–
"FC(F)(F)C(F)(F)C(F)(F)C(OC(F)(C(F)(F)F)C(F)(F)C(F)(F)F)(C(F)(F)F)C(F)(F)F (stereo not shown) [Ex. 16, Perfluoro-2-sec-butoxy-2-methylpentane]",15-16 mmHg,–
"FC(F)(F)C(F)(F)C(F)(F)C(OC(F)(F)C(F)(F)C(F)(C(F)(F)F)C(F)(F)F)(C(F)(F)F)C(F)(F)F [Ex. 17, Perfluoro-2-isovaleroxy-2-methylpentane]",9-10 mmHg,–
"FC(F)(F)C(F)(F)OC(F)(F)C(F)(F)C(F)(F)C(F)(F)C(F)(F)C(F)(F)C(F)(F)F [Ex. 19, Perfluoro-1-ethoxyheptane]",33 mmHg,–
"FC(F)(F)C(F)(F)C(F)(F)C(F)(F)C(F)(F)C(F)(F)C(F)(F)OC(F)(C(F)(F)F)C(F)(F)F [Ex. 20, Perfluoro-1-isopropoxyheptane]",14-15 mmHg,–
"FC(F)(F)C(F)(F)C(F)(F)C(F)(F)OC(F)(F)C(F)(F)C(F)(F)C(F)(F)C(F)(F)C(F)(F)C(F)(F)F [Ex. 21, Perfluoro-1-n-butoxyheptane]",8-9 mmHg,–
"FC(F)(F)C(F)(F)C(F)(F)C(F)(F)C(F)(F)C(F)(F)C(F)(F)OC(F)(F)C(F)(C(F)(F)F)C(F)(F)F [Ex. 22, Perfluoro-1-isobutoxyheptane]",8-9 mmHg,–
"FC(F)(F)C(F)(F)C(F)(F)C(F)(F)C(F)(F)C(F)(F)C(F)(F)OC(F)(C(F)(F)F)C(F)(F)C(F)(F)F (stereo not shown) [Ex. 23, Perfluoro-1-sec-butoxyheptane]",9-10 mmHg,–
"FC(F)(F)C(F)(F)C(F)(F)OC(F)(C(F)(F)C(F)(F)F)C(F)(C(F)(F)F)C(F)(F)F (stereo not shown) [Example 1, perfluoro-3-n-propoxy-2-methylpentane]",29 mmHg,–
"FC(F)(F)C(F)(F)C(F)(F)OC(F)(C(F)(C(F)(F)F)C(F)(F)F)C(F)(C(F)(F)F)C(F)(F)F [Example 7, Perfluoro-3-propoxy-2,4-dimethylpentane]",16-17 mmHg,–
"FC(F)(F)C(F)(F)C(F)(F)OC(C(F)(F)F)(C(F)(F)F)C(F)(F)C(F)(F)C(F)(F)F [Example 12, Perfluoro-2-n-propoxy-2-methylpentane]",33 mmHg,–
"FC(F)(F)OC(F)(C(F)(F)F)C(F)(F)C(C(F)(F)F)(C(F)(F)C(F)(F)F)C(F)(F)C(F)(F)F (stereo not shown) [Example 24, perfluoro-2-methoxy-4-ethyl-4-methylhexane]",17-18 mmHg,–
"FC(F)(F)C(F)(F)OC(F)(C(F)(F)F)C(F)(F)C(C(F)(F)F)(C(F)(F)C(F)(F)F)C(F)(F)C(F)(F)F (stereo not shown) [Example 25, perfluoro-2-ethoxy-4-ethyl-4-methylhexane]",8-9 mmHg,–

Structure (SMILES),Vapor pressure ([1]; 38° C.),other results
"FC(F)(F)OC(F)(C(F)(F)F)C(F)(C(F)(C(F)(F)F)C(F)(F)F)C(F)(C(F)(F)F)C(F)(F)F (stereo not shown) [Example 26, perfluoro-2-methoxy-3-isopropyl-4-methylpentane]",18-19 mmHg,–
"FC(F)(F)C(F)(F)OC(F)(C(F)(F)F)C(F)(C(F)(C(F)(F)F)C(F)(F)F)C(F)(C(F)(F)F)C(F)(F)F (stereo not shown) [Example 27, perfluoro-2-ethoxy-3-isopropyl-4-methylpentane]",10-11 mmHg,–
"FC(F)(F)C(F)(F)OC(F)(F)C(F)(C(F)(F)F)C(F)(OC(F)(F)C(F)(F)F)C(F)(F)C(F)(F)F (stereo not shown) [Example 28, perfluoro-1,3-diethoxy-2-methylpentane]",13-14 mmHg,–
"FC(F)(F)OC(F)(F)C(F)(C(F)(F)F)C(F)(OC(F)(F)F)C(F)(F)C(F)(F)F (stereo not shown) [Example 29, perfluoro-1,3-dimethoxy-2-methylpentane]",48-50 mmHg,–
"FC(F)(F)OC(OC(F)(F)C(F)(F)C(F)(F)C(F)(F)C(F)(F)F)(C(F)(F)F)C(F)(F)F [Example 30, perfluoro-2-pentoxy-2-methoxypropane]",28-29 mmHg,–
"FC(F)(F)C(F)(F)OC(OC(F)(F)C(F)(F)C(F)(F)C(F)(F)C(F)(F)F)(C(F)(F)F)C(F)(F)F [Example 31, perfluoro-2-pentoxy-2-ethoxy propane]",13-14 mmHg,–
"FC(F)(F)C(F)(F)C(F)(F)OC(OC(F)(F)C(F)(F)C(F)(F)F)(C(F)(F)F)C(F)(F)F [Example 32, perfluoro-2,2-di-n-propoxy-propane]",29-30 mmHg,–
"FC(F)(F)N(C(F)(F)F)C(F)(F)C(F)(C(F)(F)F)C(F)(F)C(F)(F)C(F)(F)F (stereo not shown) [Example 33, perfluoro-1-dimethylamino-2-methylpentane]",37-38 mmHg,–
"FC(F)(F)N(C(F)(F)C(F)(F)F)C(F)(F)C(F)(C(F)(F)F)C(F)(F)C(F)(F)C(F)(F)F (stereo not shown) [Example 34, perfluoro-1-ethylmethylamino-2-methylpentane]",21 mmHg,–
"FC(F)(F)C(F)(F)N(C(F)(F)C(F)(F)F)C(F)(F)C(F)(C(F)(F)F)C(F)(F)C(F)(F)C(F)(F)F (stereo not shown) [Example 35, perfluoro-1-diethylamino-2-methylpentane]",8-9 mmHg,–
"FC(F)(F)N(C(F)(F)F)C(F)(F)C(F)(C(F)(F)F)C(F)(F)C(F)(C(F)(F)F)C(F)(F)F (stereo not shown) [Example 36, Perfluoro-1-dimethylamino-2,4-dimethylpentane]",18-19 mmHg,–
"FC(F)(F)N(C(F)(F)C(F)(F)F)C(F)(F)C(F)(C(F)(F)F)C(F)(F)C(F)(C(F)(F)F)C(F)(F)F (stereo not shown) [Example 37, perfluoro-1-ethyl-methylamino-2,4-dimethylpentane]",12-13 mmHg,–
"FC(F)(F)N(C(F)(F)F)C(C(F)(F)F)(C(F)(F)F)C(F)(F)C(F)(F)C(F)(F)F [Example 38, perfluoro-2-dimethylamino-2-methylpentane]",37-38 mmHg,–
"FC(F)(F)N(C(F)(F)C(F)(F)F)C(C(F)(F)F)(C(F)(F)F)C(F)(F)C(F)(F)C(F)(F)F [Example 39, Perfluoro-2-methylethylamino-2-methylpentane]",20-21 mmHg,–
"FC(F)(F)N(C(F)(F)C(F)(F)C(F)(F)F)C(C(F)(F)F)(C(F)(F)F)C(F)(F)C(F)(F)C(F)(F)F [Example 40, perfluoro-2-methylpropylamino-2-methylpentane]",9-10 mmHg,–
"FC(F)(F)N(C(F)(F)F)C(F)(F)C(C(F)(F)F)(C(F)(F)F)C(F)(F)C(F)(F)C(F)(F)F [Example 41, Perfluoro-1-dimethylamino-2,2-dimethylpentane]",18-19 mmHg,–
"FC(F)(F)N(C(F)(F)F)C(F)(C(F)(F)C(F)(F)F)C(F)(C(F)(F)F)C(F)(F)F (stereo not shown) [Example 42, 3-perfluoro-3-dimethylamino-2-methylpentane]",37-38 mmHg,–
"FC(F)(F)C(F)(F)N(C(F)(F)C(F)(F)F)C(F)(C(F)(F)C(F)(F)F)C(F)(C(F)(F)F)C(F)(F)F (stereo not shown) [Example 43, perfluoro-3-diethylamino-2-methylpentane]",9-10 mmHg,–
"FC(F)(F)N(C(F)(F)F)C(F)(C(F)(C(F)(F)F)C(F)(F)F)C(F)(C(F)(F)F)C(F)(F)F [Example 44, perfluoro-3-dimethylamino-2,4-dimethylpentane]",21-22 mmHg,–
FC(F)(F)C(F)(F)C(F)(F)C(F)(F)C1(F)C(F)(F)C(F)(F)C(F)(F)C(F)(F)C1(F)F [III],–,elimination rate (in words) [2]: IV>>III≥I >II
FC(F)(F)C(F)(F)C1(C(F)(F)F)C(F)(C(F)(F)F)OC(F)(C(F)(F)F)C1(F)C(F)(F)F (stereo not shown) [II],–,elimination rate (in words) [2]: IV>>III≥I >II
FC1(F)C(F)(F)C(F)(F)C2(F)C(F)(F)C(F)(F)C(F)(F)C(F)(F)C2(F)C1(F)F (stereo not shown) [IV],–,elimination rate (in words) [2]: IV>>III≥I >II
FC(F)(F)C(F)(F)C(F)(F)C(F)(F)C(F)(F)OC(F)(F)C(F)(F)C(F)(F)C(F)(F)C(F)(F)F [I],–,elimination rate (in words) [2]: IV>>III≥I >II
